# Data as given in PubChem BioAssay (NCI).
#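 Tested at 5 concentrations; 48 h exposure; 96-well plates; endpoints linearly interpolated, else capped at highest concentration. TGI: concentration producing complete growth inhibition.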
# What was measured:
# Assay in all cases: DTP human tumour cell line panel, 48 h
# ACHN renal = test system: ACHN renal
# COLO 205 colon = test system: COLO 205 colon
# DU-145 prostate = test system: DU-145 prostate
# KM12 colon = test system: KM12 colon
# MALME-3M melanoma = test system: MALME-3M melanoma
# OVCAR-4 ovarian = test system: OVCAR-4 ovarian
# OVCAR-5 ovarian = test system: OVCAR-5 ovarian
# PC-3 prostate = test system: PC-3 prostate
# RXF 393 renal = test system: RXF 393 renal
# SF-268 CNS = test system: SF-268 CNS
# SK-MEL-5 melanoma = test system: SK-MEL-5 melanoma
# SNB-19 CNS = test system: SNB-19 CNS
# SNB-75 CNS = test system: SNB-75 CNS
# UO-31 renal = test system: UO-31 renal
# OVCAR-3 ovarian = test system: OVCAR-3 ovarian
Compound,TGI (ACHN renal),TGI (COLO 205 colon),TGI (DU-145 prostate),TGI (KM12 colon),TGI (MALME-3M melanoma),TGI (OVCAR-4 ovarian),TGI (OVCAR-5 ovarian),TGI (PC-3 prostate),TGI (RXF 393 renal),TGI (SF-268 CNS),TGI (SK-MEL-5 melanoma),TGI (SNB-19 CNS),TGI (SNB-75 CNS),TGI (UO-31 renal),TGI (OVCAR-3 ovarian)
O=P(O)(Cc1ccccc1)c1ccccc1-c1ccccc1,> 100 µM,> 100 µM,> 100 µM,> 100 µM,> 100 µM,> 100 µM,> 100 µM,> 100 µM,> 100 µM,> 100 µM,> 100 µM,> 100 µM,> 100 µM,> 100 µM,
COc1ccc(C(=O)/C=C/c2ccncc2)cc1OC,28.1 µM,29.1 µM,31.6 µM,,32.5 µM,23.2 µM,27.3 µM,30.6 µM,25.7 µM,30.5 µM,30.7 µM,32.5 µM,26.3 µM,28.1 µM,18.6 µM
Nc1nc2c(ncn2Cc2ccc(CO)cc2)c(=O)[nH]1,> 100 µM,> 100 µM,> 100 µM,> 100 µM,> 100 µM,> 100 µM,> 100 µM,> 100 µM,> 100 µM,> 100 µM,> 100 µM,> 100 µM,> 100 µM,> 100 µM,> 100 µM
CC1(C)OC(=C(C#N)C#N)C(C#N)=C1/C=C/c1ccncc1,3.39 µM,3.27 µM,6.21 µM,9.14 µM,6.31 µM,8.91 µM,8.11 µM,4.62 µM,5.07 µM,6.5 µM,14.4 µM,6.16 µM,8.68 µM,8.34 µM,3.59 µM
CC(CCC#N)(CCC#N)C(=O)CC(O)(C(F)(F)F)C(F)(F)F,20.2 µM,4.9 µM,26.1 µM,34.2 µM,12 µM,8.01 µM,32.4 µM,28.4 µM,5.03 µM,> 58.8 µM,28.5 µM,53 µM,34.5 µM,13.1 µM,7.73 µM
CC(=O)Nc1ccc(-c2nc3cc(Cl)ccc3o2)cc1,> 50 µM,> 50 µM,> 50 µM,> 50 µM,> 50 µM,> 50 µM,> 50 µM,> 50 µM,> 50 µM,> 50 µM,> 50 µM,> 50 µM,> 50 µM,> 50 µM,> 50 µM
O=C1C[C@H]2[C@@H](O1)[C@@H](O)CN1C(=O)c3ccccc3[C@H]21,> 100 µM,> 100 µM,> 100 µM,> 100 µM,> 100 µM,> 100 µM,> 100 µM,> 100 µM,> 100 µM,> 100 µM,> 100 µM,> 100 µM,> 100 µM,> 100 µM,
CC(C)C[C@H]1[C@@H](OCc2ccccc2)COS(=O)N1[C@H](C)c1ccccc1 (some centres undefined),> 100 µM,30.4 µM,> 100 µM,40.9 µM,48.3 µM,,> 100 µM,> 100 µM,32.1 µM,> 100 µM,23.3 µM,> 100 µM,> 100 µM,> 100 µM,26 µM
Oc1ccc(-c2nc(-c3ccc(F)cc3)c(-c3ccc4ccccc4n3)[nH]2)cc1,24.9 µM,29.7 µM,34.8 µM,19.1 µM,28.3 µM,26.3 µM,39.8 µM,22.6 µM,31.9 µM,43.8 µM,17.7 µM,37.1 µM,41.6 µM,26.1 µM,20.3 µM
CC(C)(C)c1cc(C(CO)OCCOCCO)cc(C(C)(C)C)c1O (centres undefined),> 100 µM,> 100 µM,> 100 µM,> 100 µM,> 100 µM,> 100 µM,> 100 µM,> 100 µM,> 100 µM,> 100 µM,> 100 µM,> 100 µM,> 100 µM,> 100 µM,> 100 µM
NC12Oc3cc(O)cc(O)c3C1(c1ccc(Cl)cc1)c1c(O)cc(O)cc1O2 (centres undefined),> 100 µM,> 100 µM,> 100 µM,> 100 µM,> 100 µM,> 100 µM,> 100 µM,> 100 µM,> 100 µM,> 100 µM,> 100 µM,> 100 µM,> 100 µM,> 100 µM,> 100 µM
Cn1c(N)c2c3c(sc2nc1=O)CCCC3,> 75 µM,> 75 µM,> 75 µM,> 75 µM,> 75 µM,> 75 µM,> 75 µM,> 75 µM,> 75 µM,> 75 µM,> 75 µM,> 75 µM,> 75 µM,> 75 µM,> 75 µM
CCOC(=O)c1cc(C2(O)CCN(CC(C)CC)C2=O)c(-c2cc(C)no2)[nH]1 (centres undefined),,> 100 µM,> 100 µM,> 100 µM,> 100 µM,> 100 µM,> 100 µM,> 100 µM,> 100 µM,> 100 µM,> 100 µM,> 100 µM,> 100 µM,> 100 µM,> 100 µM
CCCCCC(/C=C/C1CCC(=O)C1CC#C[Si](C)(C)C)OCc1ccccc1 (centres undefined),31.6 µM,39.3 µM,> 87.5 µM,33 µM,37.8 µM,> 71.8 µM,39.5 µM,> 64.1 µM,30.1 µM,29.4 µM,27.9 µM,> 84.8 µM,41.3 µM,34.3 µM,39.1 µM
CC(C)C1=C(Cc2ccccc2)C(=O)O/C1=C\c1cc(Cl)c(O)c(Cl)c1,33 µM,35.3 µM,30.3 µM,35.1 µM,36.6 µM,30.1 µM,43.7 µM,31.1 µM,30.5 µM,48.2 µM,34.5 µM,37.1 µM,36.8 µM,27.1 µM,27.2 µM
Cc1ccc(NC(=S)NNC(=O)c2cc(-c3ccccc3)nc3ccccc23)cc1,31.3 µM,35.3 µM,26.1 µM,37.7 µM,34.6 µM,35.6 µM,31.3 µM,32.2 µM,26.6 µM,34.8 µM,35.3 µM,42.4 µM,42.3 µM,25.5 µM,21.7 µM

Compound,TGI (ACHN renal),TGI (COLO 205 colon),TGI (DU-145 prostate),TGI (KM12 colon),TGI (MALME-3M melanoma),TGI (OVCAR-4 ovarian),TGI (OVCAR-5 ovarian),TGI (PC-3 prostate),TGI (RXF 393 renal),TGI (SF-268 CNS),TGI (SK-MEL-5 melanoma),TGI (SNB-19 CNS),TGI (SNB-75 CNS),TGI (UO-31 renal),TGI (OVCAR-3 ovarian)
CC(=O)Nc1ccc2cc(C)c(=O)[nH]c2n1,> 100 µM,> 100 µM,> 100 µM,> 100 µM,> 100 µM,> 100 µM,> 100 µM,> 100 µM,> 100 µM,> 100 µM,> 100 µM,> 100 µM,> 100 µM,> 100 µM,
N#CC1(C#N)C2CCCCC23OC(=N)C1(C#N)C(c1ccccc1)O3 (centres undefined),> 100 µM,34.1 µM,64.3 µM,25.8 µM,34.5 µM,,50.6 µM,55.4 µM,> 100 µM,18.1 µM,33 µM,> 100 µM,11.7 µM,> 100 µM,28.2 µM
O=C(NS(=O)(=O)OCC(Cl)(Cl)Cl)SCCC(F)(F)C(F)(F)C(F)(F)C(F)(F)C(F)(F)C(F)(F)F,> 100 µM,33.5 µM,> 100 µM,43.5 µM,37.7 µM,31.8 µM,34.6 µM,32.4 µM,44.6 µM,> 100 µM,,36.2 µM,64.6 µM,> 100 µM,48.3 µM
COc1ccc(N2C(=O)CS(=O)(=O)C2c2cccc(Oc3ccccc3)c2)cc1 (centres undefined),32.8 µM,11.4 µM,> 100 µM,> 100 µM,54.6 µM,79.5 µM,> 100 µM,51.9 µM,19 µM,38.4 µM,16.7 µM,> 100 µM,45.2 µM,71.3 µM,> 100 µM
CC(/C=N\NC(=S)N1CCCCC1)=N/NC(=S)N1CCCCC1,7.16 µM,5.85 µM,4.58 µM,13.7 µM,14.9 µM,15.8 µM,21.8 µM,11.9 µM,4.28 µM,14.6 µM,3.86 µM,35.7 µM,8.08 µM,7.19 µM,5.12 µM
S=c1[nH]n2c(COc3cccc(OCc4nnc5sc(=S)[nH]n45)c3)nnc2s1,> 100 µM,> 100 µM,> 100 µM,> 100 µM,> 100 µM,> 100 µM,> 100 µM,> 100 µM,> 100 µM,> 100 µM,,> 100 µM,> 100 µM,> 100 µM,> 100 µM
CC1(C)OC2C(O)CN3CCS[C@H]3C2O1 (some centres undefined),> 100 µM,> 100 µM,> 100 µM,> 100 µM,> 100 µM,> 100 µM,> 100 µM,> 100 µM,> 100 µM,> 100 µM,> 100 µM,> 100 µM,> 100 µM,> 100 µM,> 100 µM
CCc1nc2ccc(N=NN(C)C)cc2[nH]1,> 100 µM,> 100 µM,> 100 µM,> 100 µM,> 100 µM,> 100 µM,> 100 µM,> 100 µM,> 100 µM,> 100 µM,> 100 µM,> 100 µM,> 100 µM,> 100 µM,> 100 µM
CN1CCN(CN2C(=O)C3C4C=CC(C3C2=O)C2C(=O)N(CN3CCN(C)CC3)C(=O)C42)CC1 (centres undefined),> 100 µM,> 100 µM,> 31.6 µM,> 100 µM,> 92 µM,> 100 µM,> 100 µM,> 100 µM,> 70.2 µM,> 100 µM,,> 100 µM,> 100 µM,> 100 µM,> 100 µM
O=[N+]([O-])c1ccc(S(=O)(=O)N=Ic2ccccc2)cc1,> 100 µM,> 100 µM,> 100 µM,> 100 µM,> 100 µM,> 100 µM,> 100 µM,> 100 µM,> 100 µM,> 100 µM,> 100 µM,> 100 µM,> 100 µM,> 100 µM,> 100 µM
CC(C)(C)c1cc(C(=O)/C=C/C=C/c2ccccc2)cc(C(C)(C)C)c1O,> 100 µM,34.9 µM,98.1 µM,> 92.7 µM,> 100 µM,> 100 µM,> 87 µM,> 79.9 µM,15.1 µM,> 74 µM,37.2 µM,77.8 µM,67.2 µM,> 77.3 µM,> 94.1 µM
COc1cc(C2SCC(=O)N2c2ccc(Cl)c(Cl)c2)cc(OC)c1OC (centres undefined),> 100 µM,> 100 µM,> 100 µM,51 µM,> 100 µM,> 100 µM,98.3 µM,> 100 µM,43.5 µM,> 100 µM,> 100 µM,> 100 µM,> 100 µM,> 100 µM,> 100 µM
CC1C[C@]2(C)C(=O)Nc3ccccc3[C@@H]2Nc2ccccc21 (some centres undefined),> 100 µM,34 µM,> 100 µM,39.1 µM,62 µM,> 100 µM,> 100 µM,61.3 µM,77.9 µM,> 100 µM,31.3 µM,> 100 µM,> 100 µM,> 100 µM,35.9 µM
COc1ccc(-c2nc(SCC(=O)N/N=C/c3ccc(O)c(OC)c3)[nH]c2-c2ccc(OC)cc2)cc1,32.5 µM,34.4 µM,> 100 µM,> 100 µM,81.8 µM,> 100 µM,63.7 µM,> 100 µM,36.5 µM,> 100 µM,31.7 µM,> 100 µM,> 100 µM,> 100 µM,48 µM
Cc1ccc(-c2c3c(n(C4OC(CO)C(O)C(O)C4O)c(=S)c2C#N)CC(C)(C)CC3=O)cc1 (centres undefined),> 100 µM,,> 100 µM,> 100 µM,> 100 µM,> 100 µM,> 100 µM,> 100 µM,> 100 µM,> 100 µM,> 100 µM,> 100 µM,> 100 µM,> 100 µM,> 100 µM
